Measurements from ChEMBL document CHEMBL1201862, “PubChem BioAssay data set” (2004).
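How tested: cells in 96-well plates exposed to compound for 48 hours at five concentrations. GI50 = concentration required for 50% inhibition of growth.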 Activity calls are given as the source filed them. Rule as the data show it: active = GI50 up to about 1.1 µM and inactive = higher.

Key:
Experiment in all cases: NCI-60 cell line screen, 48 h
RPMI-8226 = test system: RPMI-8226
HT-29 = test system: HT-29
NCI/ADR-RES = test system: NCI/ADR-RES
SF-295 = test system: SF-295
EKVX = test system: EKVX
T47D = test system: T47D
M14 = test system: M14
ACHN = test system: ACHN
SNB-19 = test system: SNB-19
MCF7 = test system: MCF7
UACC-62 = test system: UACC-62
K562 = test system: K562
KM12 = test system: KM12
Hs-578T = test system: Hs-578T
MDA-MB-435 = test system: MDA-MB-435
HL-60 = test system: HL-60
Malme-3M = test system: Malme-3M
NCI-H522 = test system: NCI-H522
SK-OV-3 = test system: SK-OV-3
HCC 2998 = test system: HCC 2998
SR = test system: SR
SK-MEL-5 = test system: SK-MEL-5
SF-539 = test system: SF-539
MDA-N = test system: MDA-N
PC-3 = test system: PC-3
SN12C = test system: SN12C
SF-268 = test system: SF-268
SK-MEL-2 = test system: SK-MEL-2
NCI-H226 = test system: NCI-H226
HCT-15 = test system: HCT-15
OVCAR-4 = test system: OVCAR-4
NCI-H460 = test system: NCI-H460
SNB-75 = test system: SNB-75
HCT-116 = test system: HCT-116
A498 = test system: A498
NCI-H23 = test system: NCI-H23
RXF 393 = test system: RXF 393
OVCAR-3 = test system: OVCAR-3
UACC-257 = test system: UACC-257
UO-31 = test system: UO-31
HOP-62 = test system: HOP-62
COLO 205 = test system: COLO 205
CAKI-1 = test system: CAKI-1
MOLT-4 = test system: MOLT-4
BT-549 = test system: BT-549
786-0 = test system: 786-0
A549 = test system: A549
SW-620 = test system: SW-620
LOX IMVI = test system: LOX IMVI
DU-145 = test system: DU-145
HOP-92 = test system: HOP-92
TK-10 = test system: TK-10
IGROV-1 = test system: IGROV-1
MDA-MB-231 = test system: MDA-MB-231
U-251 = test system: U-251
OVCAR-5 = test system: OVCAR-5
OVCAR-8 = test system: OVCAR-8
CCRF-CEM = test system: CCRF-CEM
SK-MEL-28 = test system: SK-MEL-28

Cc1cc(CN(Cc2ccccc2)Cc2nc3ccccc3[nH]2)c(O)c(CN(Cc2nc3ccccc3[nH]2)Cc2nc3ccccc3[nH]2)c1
GI50 (RPMI-8226): 4810 nM (inactive) | GI50 (HT-29): 4110 nM (inactive) | GI50 (NCI/ADR-RES): 5060 nM (inactive) | GI50 (SF-295): 6150 nM (inactive) | GI50 (EKVX): 11400 nM (inactive) | GI50 (T47D): 8050 nM (inactive) | GI50 (M14): 5940 nM (inactive) | GI50 (ACHN): 3380 nM (inactive) | GI50 (SNB-19): 5200 nM (inactive) | GI50 (MCF7): 2660 nM (inactive) | GI50 (UACC-62): 3560 nM (inactive) | GI50 (K562): 2630 nM (inactive) | GI50 (KM12): 6300 nM (inactive) | GI50 (Hs-578T): 15600 nM (inactive) | GI50 (MDA-MB-435): 7520 nM (inactive) | GI50 (HL-60): 2160 nM (inactive) | GI50 (Malme-3M): 24900 nM (inactive) | GI50 (NCI-H522): 16200 nM (inactive) | GI50 (SK-OV-3): 5550 nM (inactive) | GI50 (HCC 2998): 6430 nM (inactive) | GI50 (SR): 2600 nM (inactive) | GI50 (SK-MEL-5): 6730 nM (inactive) | GI50 (SF-539): 2920 nM (inactive) | GI50 (MDA-N): 6430 nM (inactive) | GI50 (PC-3): 12400 nM (inactive) | GI50 (SN12C): 8410 nM (inactive) | GI50 (SF-268): 8110 nM (inactive) | GI50 (SK-MEL-2): 10800 nM (inactive) | GI50 (NCI-H226): 3420 nM (inactive) | GI50 (HCT-15): 2810 nM | GI50 (OVCAR-4): 6010 nM (inactive) | GI50 (NCI-H460): 3940 nM (inactive) | GI50 (SNB-75): 8910 nM (inactive) | GI50 (HCT-116): 4160 nM (inactive) | GI50 (A498): 10200 nM (inactive) | GI50 (NCI-H23): 6930 nM (inactive) | GI50 (RXF 393): 13500 nM (inactive) | GI50 (OVCAR-3): 6500 nM (inactive) | GI50 (UACC-257): 4860 nM (inactive) | GI50 (UO-31): 7030 nM (inactive) | GI50 (HOP-62): 5260 nM (inactive) | GI50 (COLO 205): 19800 nM (inactive) | GI50 (CAKI-1): 8690 nM (inactive) | GI50 (MOLT-4): 4260 nM (inactive) | GI50 (BT-549): 4760 nM (inactive) | GI50 (786-0): 15000 nM (inactive) | GI50 (A549): 8790 nM (inactive) | GI50 (SW-620): 14100 nM (inactive) | GI50 (LOX IMVI): 3480 nM (inactive) | GI50 (DU-145): 23400 nM (inactive) | GI50 (HOP-92): 3480 nM (inactive) | GI50 (TK-10): 4710 nM (inactive) | GI50 (IGROV-1): 5040 nM (inactive) | GI50 (MDA-MB-231): 12400 nM (inactive) | GI50 (U-251): 13000 nM (inactive) | GI50 (OVCAR-5): 15200 nM (inactive) | GI50 (OVCAR-8): 4180 nM (inactive) | GI50 (CCRF-CEM): 2810 nM (inactive) | GI50 (SK-MEL-28): 26200 nM (inactive)

COc1cc(C2c3cc4c(cc3OC(Nc3ccc(C(=O)O)cc3)C2C)OCO4)cc(OC)c1OC (stereo not drawn)
GI50 (RPMI-8226): 337 nM (active) | GI50 (HT-29): 329 nM (active) | GI50 (NCI/ADR-RES): 290 nM (active) | GI50 (SF-295): 214 nM (active) | GI50 (EKVX): 745 nM (active) | GI50 (T47D): 458 nM (active) | GI50 (M14): 301 nM (active) | GI50 (ACHN): 1380 nM (inactive) | GI50 (SNB-19): 472 nM (active) | GI50 (MCF7): 232 nM (active) | GI50 (UACC-62): 403 nM (active) | GI50 (K562): 300 nM (active) | GI50 (KM12): 241 nM (active) | GI50 (Hs-578T): 1390 nM (inactive) | GI50 (MDA-MB-435): 31.7 nM (active) | GI50 (HL-60): 186 nM (active) | GI50 (Malme-3M): 65.5 nM (active) | GI50 (NCI-H522): 376 nM (active) | GI50 (SK-OV-3): 362 nM (active) | GI50 (HCC 2998): 295 nM (active) | GI50 (SR): 204 nM (active) | GI50 (SK-MEL-5): 73.5 nM (active) | GI50 (SF-539): 218 nM (active) | GI50 (MDA-N): 55.7 nM (active) | GI50 (PC-3): 253 nM (active) | GI50 (SN12C): 991 nM (active) | GI50 (SF-268): 504 nM (active) | GI50 (SK-MEL-2): 579 nM (active) | GI50 (NCI-H226): 2310 nM (inactive) | GI50 (HCT-15): 294 nM | GI50 (OVCAR-4): 458 nM (active) | GI50 (NCI-H460): 326 nM (active) | GI50 (SNB-75): 295 nM (active) | GI50 (HCT-116): 310 nM (active) | GI50 (A498): 714 nM (active) | GI50 (NCI-H23): 454 nM (active) | GI50 (RXF 393): 115 nM (active) | GI50 (OVCAR-3): 285 nM (active) | GI50 (UACC-257): > 40300 nM (inactive) | GI50 (UO-31): 426 nM (active) | GI50 (HOP-62): 446 nM (active) | GI50 (COLO 205): 202 nM (active) | GI50 (CAKI-1): 204 nM (active) | GI50 (MOLT-4): 434 nM (active) | GI50 (BT-549): 467 nM (active) | GI50 (786-0): 468 nM (active) | GI50 (A549): 373 nM (active) | GI50 (SW-620): 350 nM (active) | GI50 (LOX IMVI): 532 nM (active) | GI50 (DU-145): 378 nM (active) | GI50 (HOP-92): 4130 nM (inactive) | GI50 (TK-10): 25400 nM (inactive) | GI50 (IGROV-1): 618 nM (active) | GI50 (MDA-MB-231): 189 nM (active) | GI50 (U-251): 346 nM (active) | GI50 (OVCAR-5): 841 nM (active) | GI50 (OVCAR-8): 422 nM (active) | GI50 (CCRF-CEM): 282 nM (active) | GI50 (SK-MEL-28): 11100 nM (inactive)
